From patent US6479487B1, “6, 9-disubstituted 2-[trans-(4-aminocyclohexyl)amino] purines” (Aventis Pharmaceuticals Inc., priority 1998, dated 2002)
Values joined by “and” are separate entries in the source; they are usually repeats but may differ in a detail not shown here. Equal entries are not always repeated. Structures can show the parent of a compound that is named as a salt. Where two headings read alike, the source gives them in different places.

How the values were obtained:
cdk4/cyclin D1 = target: T1, cdk4/cyclin D1 (Homo sapiens, UniProt P11802); experiment: Cyclin-dependent Kinase 4 Assay (cdk4/cyclin D1, GST-Rb substrate); assay type: biochemical; details: cdk4/cyclin D1 insect cell lysate, 10 μM ATP, 30 min at 37° C., several values = separate determinations, read-out: CDK4 Inhibition IC50
T1 construct: made in house; host or cells: Sf9 insect cells (Bac-to-Bac baculovirus, pFastBac)
Summary of the method: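 Insect-cell lysate of coexpressed cdk4/cyclin D1 (0.1 μg) acts on GST-Rb (0.5 μg) bound to glutathione-Sepharose, in 50 mM HEPES pH 7.5, 10 mM MgCl2, 1 mM EGTA. Reaction runs 30 min at 37 °C, then is stopped by filtration and TNEN washes. Rb phosphorylation read by scintillation counting; IC50 derived.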

DMS-114 = experiment: In vitro tumor cell proliferation, DMS-114; assay type: cell-based, human; details: many values given with an undefined *, read-out: In vitro Tumor Cell Proliferation (IC50, μM) Lung DMS-114
Summary of the method: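 Human small cell lung carcinoma DMS-114 cells plated overnight, then drug-treated for 3 days, medium and drug renewed, and incubated 4 more days. Growth read by sulforhodamine B staining after TCA fixation; alternatively by CyQUANT after 3 days' drug exposure and freezing at −80 °C.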

PC-3 = experiment: In vitro tumor cell proliferation, PC-3; assay type: cell-based, human; details: many values given with an undefined *, read-out: In vitro Tumor Cell Proliferation (IC50, μM) Prostate PC-3
Summary of the method: (§1)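 Cells seeded overnight at 37° C, then exposed to drug diluted in medium; at 3 days medium and drug replenished for another 4 days. Growth read by sulforhodamine B staining after TCA fixation; alternatively by CyQUANT, with plates frozen at −80° C after 3 days of drug.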

MDA-MB-435 = experiment: In vitro tumor cell proliferation, MDA-MB-435; assay type: cell-based; details: values given with an undefined *, read-out: In vitro Tumor Cell Proliferation (IC50, μM) Breast MDA-MB-435
Summary of the method: as §1

HT-29 = experiment: In vitro tumor cell proliferation, HT-29; assay type: cell-based, human; details: many values given with an undefined *, read-out: In vitro Tumor Cell Proliferation (IC50, μM) Colon HT-29
Summary of the method: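 HT-29 cells seeded overnight at 37° C, then exposed to drug for 3 days, refed with fresh drug-containing medium for 4 more days. Proliferation read by sulforhodamine B staining after TCA fixation; alternatively by CyQUANT after freezing plates at −80° C following 3 days' drug exposure.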

MDA-MB-231 = experiment: In vitro tumor cell proliferation, MDA-MB-231; assay type: cell-based, human; details: sulforhodamine B or CyQUANT assay, many values given with an undefined *, read-out: In vitro Tumor Cell Proliferation (IC50, μM) Breast MDA-MB-231
Summary of the method: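 Cells plated overnight at 37 °C, then exposed to drug for 3 days, refed with fresh drug and incubated 4 more days. Read-out by sulforhodamine B staining after TCA fixation; alternatively, CyQUANT after 3-day drug exposure and freezing at −80 °C.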

DU145 = experiment: In vitro tumor cell proliferation, DU145; assay type: cell-based, human; details: many values given with an undefined *, read-out: In vitro Tumor Cell Proliferation (IC50, μM) Prostate DU145
Summary of the method: as §1

Colo-205 = experiment: In vitro tumor cell proliferation, Colo-205; assay type: cell-based; details: values given with an undefined *, read-out: In vitro Tumor Cell Proliferation (IC50, μM) Colon Colo-205
Summary of the method: as §1

cdk2/cyclin E = target: T2, cdk2/cyclin E (Homo sapiens, UniProt P24941); experiment: Cyclin-Dependent Kinase 2 Assay (cdk2/cyclin E, GST-Rb substrate); assay type: biochemical; details: recombinant cdk2/cyclin E, 10 μM ATP, 30 min at 30° C., several values in a cell = separate determinations, read-out: CDK-2 Inhibition IC50
T2 construct: made in house; host or cells: insect cells (baculovirus co-infection)
Description: Substrate: GST-Rb as described above for cdk4/cyclin D1
Assay conditions for cdk2/cyclin E were identical to those for cdk4/cyclin D1 including the substrate. The concentration of recombinant cdk2/cyclin E in the assay was 0.1 μg per 100 μl assay. Incubation was for 30 min at 30° C.

A549 = experiment: In vitro tumor cell proliferation, A549; assay type: cell-based, human; details: many values given with an undefined *, read-out: In vitro Tumor Cell Proliferation (IC50, μM) Lung A549
Summary of the method: as §1

[1] = Homo sapiens, MDA-MB-435, MDA-MB-435
[2] = Homo sapiens, MDA-MB-231, MDA-MB-231
[3] = Homo sapiens, COLO 205, Colo-205

T1 sequence (P11802 whole entry): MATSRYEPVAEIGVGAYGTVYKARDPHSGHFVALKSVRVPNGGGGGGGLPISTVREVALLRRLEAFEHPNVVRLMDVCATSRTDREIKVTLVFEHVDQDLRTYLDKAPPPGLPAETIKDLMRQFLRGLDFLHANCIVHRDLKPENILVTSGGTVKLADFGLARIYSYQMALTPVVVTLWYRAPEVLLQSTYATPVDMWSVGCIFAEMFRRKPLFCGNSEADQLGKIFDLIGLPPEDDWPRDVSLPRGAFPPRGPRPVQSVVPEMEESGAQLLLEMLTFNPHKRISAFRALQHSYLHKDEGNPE
T1 sequence (P24385 whole entry partner): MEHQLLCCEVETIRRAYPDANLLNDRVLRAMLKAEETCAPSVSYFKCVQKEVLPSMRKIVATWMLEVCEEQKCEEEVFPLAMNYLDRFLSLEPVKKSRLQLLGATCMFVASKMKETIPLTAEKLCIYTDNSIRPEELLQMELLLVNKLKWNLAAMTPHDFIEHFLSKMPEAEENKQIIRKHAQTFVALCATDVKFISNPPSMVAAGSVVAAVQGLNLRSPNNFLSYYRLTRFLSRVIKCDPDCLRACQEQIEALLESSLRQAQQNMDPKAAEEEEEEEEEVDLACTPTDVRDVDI

| Compound | IC50 (cdk4/cyclin D1) | IC50 (cdk2/cyclin E) | IC50 (DMS-114; Homo sapiens, DMS-114, DMS-114) | IC50 (PC-3; Homo sapiens, PC-3, PC-3) | IC50 (PC-3; PC-3, dihydrochloride) | IC50 (MDA-MB-435; [1]) | IC50 (MDA-MB-435; MDA-MB-435, dihydrochloride) | IC50 (HT-29; HT-29, dihydrochloride) | IC50 (HT-29; Homo sapiens, HT-29, HT-29) | IC50 (MDA-MB-231; [2]) | IC50 (MDA-MB-231; MDA-MB-231, dihydrochloride) | IC50 (DU145; DU145, dihydrochloride) | IC50 (DU145; Homo sapiens, DU-145, DU145) | IC50 (Colo-205; Colo-205, dihydrochloride) | IC50 (Colo-205; [3]) | IC50 (A549; A549, dihydrochloride) | IC50 (A549; Homo sapiens, A549, A549) | IC50 (DMS-114; DMS-114, dihydrochloride) | also measured |
| --- | --- | --- | --- | --- | --- | --- | --- | --- | --- | --- | --- | --- | --- | --- | --- | --- | --- | --- | --- |
| 2-[Trans-(4-aminocyclohexyl)amino]-6-[4-(1-(4-methylbenzyl))piperidinylamino]-9-cyclopentylpurine [Example 40] | 1000 nM and 2000 nM | 230 nM and 170 nM |  |  |  |  |  |  |  |  |  |  |  |  |  |  |  |  | IC50 (DMS-114; DMS-114): 0.26 µM; IC50 (PC-3; PC-3): 0.34 µM; IC50 (MDA-MB-435; MDA-MB-435): 0.27 µM; IC50 (HT-29; HT-29): 0.29 µM and 0.27 µM; IC50 (MDA-MB-231; MDA-MB-231): 0.19 µM and 0.28 µM; IC50 (DU145; DU145): 0.24 µM; IC50 (Colo-205; Colo-205): 0.16 µM and 0.18 µM; IC50 (A549; A549): 0.18 µM |
| N[C@H]1CC[C@H](Nc2nc(Nc3ccc(OC(F)(F)F)cc3)c3ncn(C4CCCC4)c3n2)CC1 [Example 5, 2-[Trans-(4-aminocyclohexyl)amino]-6-[(4-trifluoromethoxy)phenylamino]-9-cyclopentylpurine dihydrochloride] | 400 nM and 700 nM | 230 nM | 0.47 µM | 1.1 µM | 0.7 µM | 1.3 µM | 1.5 µM | 1.1 µM | 1 µM | 0.78 µM | 0.87 µM | 0.7 µM | 0.56 µM | 1.2 µM | 1 µM | 0.53 µM | 0.35 µM |  |  |
| CCN(CC)CCNc1nc(N[C@H]2CC[C@H](N)CC2)nc2c1ncn2C1CCCC1 [Example 6, 2-[Trans-(4-aminocyclohexyl)amino]-6-[2-(diethylamino)ethylamino]-9-cyclopentylpurine trihydrochloride] | 300 nM and 700 nM | 690 nM | 6.3 µM | 6.4 µM |  |  |  |  |  | 6.2 µM |  |  | 7.8 µM |  | 5.4 µM |  | 7.2 µM |  | IC50 (DMS-114; DMS-114, trihydrochloride): 9.6 µM; IC50 (PC-3; PC-3, trihydrochloride): 8.2 µM; IC50 (MDA-MB-435; MDA-MB-435, trihydrochloride): 11 µM; IC50 (HT-29; HT-29, trihydrochloride): 7.7 µM; IC50 (MDA-MB-231; MDA-MB-231, trihydrochloride): 6.4 µM; IC50 (DU145; DU145, trihydrochloride): 7.9 µM; IC50 (Colo-205; Colo-205, trihydrochloride): 4.7 µM |
| N[C@H]1CC[C@H](Nc2nc(NCc3cccc4ccccc34)c3ncn(C4CCCC4)c3n2)CC1 [Example 7, 2-[Trans-(4-aminocyclohexyl)amino]-6-[(1-napthyl)methylamino]-9-cyclopentylpurine dihydrochloride] | 1400 nM | 160 nM | 2.8 µM | 4.2 µM | 4.8 µM | 11 µM | 10 µM | 4.8 µM | 4.6 µM | 4.4 µM | 4.9 µM | 5.2 µM | 5.5 µM | 3.5 µM | 3.4 µM |  | 3.4 µM | 3.3 µM |  |
| COc1ccc2[nH]cc(CCNc3nc(N[C@H]4CC[C@H](N)CC4)nc4c3ncn4C3CCCC3)c2c1 [Example 9, 2-[Trans-(4-aminocyclohexyl)amino]-6-[(3-(5-methoxyindolyl))-2-ethylamino]-9-cyclopentylpurine dihydrochloride] | 3900 nM and 2000 nM | 165 nM | 1 µM | 0.41 µM | 0.28 µM | > 10 µM |  | 0.96 µM | 0.87 µM | 0.7 µM | 1.1 µM | 4 µM | 3.5 µM | 0.94 µM | 0.76 µM | 2 µM | 1.2 µM | 1.4 µM |  |
| N[C@H]1CC[C@H](Nc2nc(NNc3ccccc3F)c3ncn(C4CCCC4)c3n2)CC1 [Example 11, 2-[Trans-(4-aminocyclohexyl)amino]-6-[2-fluorophenylhydrazino]-9-cyclopentylpurine dihydrochloride] | 8900 nM and 5800 nM | 100 nM | 6.8 µM | 3.6 µM |  |  | 10 µM | 7.8 µM | 6.5 µM | 5 µM | 6.7 µM | 4.7 µM | 4.6 µM | 5.2 µM | 6.5 µM | 3.4 µM | 4.5 µM | 4.9 µM |  |
| N[C@H]1CC[C@H](Nc2nc(Nc3cccc(F)c3)c3ncn(C4CCCC4)c3n2)CC1 [Example 21, 2-[Trans-(4-aminocyclohexyl)amino]-6-(3-fluorophenylamino)-9-cyclopentylpurine dihydrochloride] | 230 nM and 970 nM | 82 nM and 80 nM | 1.1 µM | 1.3 µM | 0.7 µM | 1.9 µM | 2.3 µM | 1.7 µM | 1.6 µM | 1.3 µM |  | 0.9 µM | 0.7 µM | 1.1 µM | 1.2 µM | 1 µM | 0.6 µM | 0.7 µM |  |
| N[C@H]1CC[C@H](Nc2nc(NNc3ccc(Cl)cc3Cl)c3ncn(C4CCCC4)c3n2)CC1 [Example 147, 2-[Trans-(4-aminocyclohexyl)amino]-6-(2,4-dichlorophenylhydrazino)-9-cyclopentylpurine dihydrochloride] | 5700 nM and 6100 nM | 268 nM |  | 3.2 µM | 2.3 µM | 5.6 µM | 6 µM | 2 µM | 2.8 µM | 5.1 µM | 3.2 µM | 5.7 µM | 3.1 µM | 3.5 µM | 5.7 µM | 2.6 µM | 2.7 µM |  |  |
